Results on 35 molecules are retold here after patent US11292781B2, “Pyrimidine tricyclic enone derivatives for inhibition of ROR-gamma and other uses” (REATA PHARMACEUTICALS, INC., priority 2016, dated 2022).

For assay [1], the system named is Nrf2 transcription factor (GST ARE luciferase reporter in AREc32 cells). Nature of the assay: AREc32 luciferase reporter assay. Particulars: EC2×: concentration required to increase GST ARE luciferase reporter activity by 2-fold, 19 hours. In kind it is cell-based, human. An outline of the steps: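 AREc32 cells (MCF-7 carrying luciferase under eight rat GSTA2 ARE copies) treated with compound; luciferase measured by ONE-Glo luminescence. Signal normalised to DMSO wells as fold-induction, fitted by variable-slope log(agonist)-response regression, with EC2× interpolated from the curve.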

Assay [2] has as its system IL-17A levels in primary human CD4+ T cells differentiated into Th17 cells. Nature of the assay: IL-17 release from differentiated primary human T-cells (IL-17A HTRF). In kind it is cell-based. Particulars: primary human CD4+ T cells, Th17 differentiation, 46-hour incubation; read-out: hIL17 IC50. On the procedure:
C. IL-17 Release from Differentiated Primary Human T-Cells and Cell Viability Primary human cryopreserved CD4+ T Cells (Lonza, donor #0000402103) were plated in Lymphocyte Growth Medium-3 (LGM-3, Lonza) according to the manufacturer's recommendations, and allowed to recover for approximately 3 hours at 37° C. with 5% CO2 in a humidified atmosphere. […] Triplicate wells were plated for each test condition. DMSO (final concentration ≤0.1%) was used as the vehicle. Immediately after plating, CD4+ T cells were activated by adding Dynabeads Human T-Activator CD3/CD28 (Life Technologies; bead-to-cell ratio of 1:2.5) and differentiated into Th17 cells by adding a mixture of the following cytokines: transforming growth factor-β (TGF-β, 5 ng/mL), IL-6 (20 ng/mL), IL-23 (20 ng/mL), and […] (10 ng/mL). Undifferentiated control cells received only cytokine IL-2 (50 ng/mL). All human recombinant cytokines were purchased from R&D Systems. Following a 46-hour incubation at 37° C. with 5% CO2 in a humidified atmosphere, the plates were centrifuged for 3 minutes at 250×g, and half of the supernatant was transferred to a new plate to be used in the IL-17A assay (see below). Cell viability was assessed in the original plate using the CyQuant Direct Assay (Life Technologies). CyQuant values from test compound samples were normalized to those from DMSO-treated samples. The concentration of IL-17A in the supernatant was measured using the Homogeneous Time-Resolved Fluorescence (HTRF) assay (Cisbio Bioassays) according to the manufacturer's protocol. The assay was performed at room temperature in low volume, solid white 384-well plates (Greiner Bio-One). […] A non-linear regression analysis with log (inhibitor) vs. normalized response using a variable slope was applied to fit the data and determine the IC50 values for inhibition of IL-17A levels and cell viability.

As to `CC[C@@]1(C)C(=O)C(C#N)=C[C@@]2(C)c3nc(-c4ccnc5ccccc45)nc(-c4ccccc4F)c3CC[C@H]12` [T126], in assay [1], the “HRF2 ARE 2×” value was 280 nM. The IC50 in assay [2] worked out at 36 nM.

Turning to `CC1(C)C(=O)C(C#N)=C[C@@]2(C)c3nc(-c4ccnc5c(F)cccc45)nc(-c4ccccc4F)c3CC[C@H]12` [T127], in assay [1], the “HRF2 ARE 2×” value stood at 343 nM. Also, the IC50 in assay [2] turned out to be 36 nM.

As for `C[C@H]1C(=O)[C@@]2(C#N)O[C@H]2[C@@]2(C)c3nc(-c4ccnc5ccccc45)nc(-c4ccccc4F)c3CC[C@H]12` [T132], the “HRF2 ARE 2×” value in assay [1] is reported as 437 nM. The IC50 in assay [2] came to 74 nM.

In the case of `C[C@]1(CCCO)C(=O)C(C#N)=C[C@@]2(C)c3nc(-c4ccnc(C5CC5)c4)nc(-c4ccccc4F)c3CC[C@H]12` [T136], the “HRF2 ARE 2×” value in assay [1] came to 518 nM. The IC50 in assay [2] amounted to 25 nM.

As for `CCC[C@@]1(C)C(=O)C(C#N)=C[C@@]2(C)c3nc(-c4ccnc(C5CC5)c4)nc(-c4ccccc4F)c3CC[C@H]12` [T137], in assay [1], the “HRF2 ARE 2×” value is given as 274 nM. The IC50 in assay [2] stood at 9 nM.

Regarding `C[C@H]1C(=O)C(C#N)=C[C@@]2(C)c3nc(-c4ccnc5ccccc45)nc(N4CCCC4)c3CC[C@H]12` [T138], in assay [1], the “HRF2 ARE 2×” value was determined as 641 nM. In addition, the IC50 in assay [2] is 167 nM.

As for `C[C@H]1C(=O)C(C#N)=C[C@@]2(C)c3nc(-c4ccc(C5CC5)nc4)nc(-c4ccccc4F)c3CC[C@H]12` [T140], the “HRF2 ARE 2×” value in assay [1] worked out at 451 nM. Also, the IC50 in assay [2] was found to be 26 nM.

In the case of `C[C@H]1C(=O)C(C#N)=C[C@@]2(C)c3nc(-c4ccc(-c5ccccc5)nc4)nc(-c4ccccc4F)c3CC[C@H]12` [T141], the “HRF2 ARE 2×” value in assay [1] amounted to 557 nM. Further, the IC50 in assay [2] amounted to 22 nM.

On to `C[C@H]1C(=O)C(C#N)=C[C@@]2(C)c3nc(-c4ccc(CCS(C)(=O)=O)nc4)nc(-c4ccccc4F)c3CC[C@H]12` [T142], for which the “HRF2 ARE 2×” value in assay [1] is reported as 217 nM. In addition, in assay [2], the IC50 was 77 nM.

Turning to `C[C@H]1C(=O)C(C#N)=C[C@@]2(C)c3nc(-c4ccnc(CS(C)(=O)=O)c4)nc(-c4ccccc4F)c3CC[C@H]12` [T143], the “HRF2 ARE 2×” value in assay [1] came out at 538 nM. Moreover, the half-inhibitory concentration (IC50) in assay [2] was 94 nM.

As for `C[C@H]1C(=O)C(C#N)=C[C@@]2(C)c3nc(-c4ccnc(CCS(C)(=O)=O)c4)nc(-c4ccccc4F)c3CC[C@H]12` [T144], the “HRF2 ARE 2×” value in assay [1] came to 299 nM. In assay [2], the IC50 worked out at 72 nM.

Consider `C[C@H]1C(=O)C(C#N)=C[C@@]2(c3ccccc3)c3nc(-c4ccnc5ccccc45)nc(-c4ccccc4F)c3CC[C@H]12` [T148], for which, in assay [1], the “HRF2 ARE 2×” value was determined as 1758 nM. Moreover, the IC50 in assay [2] amounted to 77 nM.

`CC1(C)C(=O)C(C#N)=C[C@@]2(C)c3nc(-c4cccc5ncccc45)nc(-c4ccccc4F)c3CC[C@H]12` [T149]: the “HRF2 ARE 2×” value in assay [1] is listed as 330 nM. The IC50 in assay [2] worked out at 14 nM.

Take `CCOC(=O)CCc1cc(-c2nc(-c3ccccc3F)c3c(n2)[C@]2(C)C=C(C#N)C(=O)[C@H](C)[C@H]2CC3)ccn1` [T151]: the “HRF2 ARE 2×” value in assay [1] was 1111 nM. Moreover, the IC50 in assay [2] was 54 nM.

Turning to `C[C@H]1C(=O)C(C#N)=C[C@@]2(C)c3nc(-c4ccnc(CCC(=O)N(C)C)c4)nc(-c4ccccc4F)c3CC[C@H]12` [T152], the “HRF2 ARE 2×” value in assay [1] is reported as 323 nM. Also, the IC50 in assay [2] amounted to 46 nM.

`CCS(=O)(=O)CCc1cc(-c2nc(-c3ccccc3F)c3c(n2)[C@]2(C)C=C(C#N)C(=O)[C@H](C)[C@H]2CC3)ccn1` [T153]: in assay [1], the “HRF2 ARE 2×” value turned out to be 282 nM. Further, in assay [2], the IC50 stood at 52 nM.

For `CCS(=O)(=O)Cc1cc(-c2nc(-c3ccccc3F)c3c(n2)[C@]2(C)C=C(C#N)C(=O)[C@H](C)[C@H]2CC3)ccn1` [T154], the “HRF2 ARE 2×” value in assay [1] was 469 nM. Besides, the IC50 in assay [2] amounted to 65 nM.

On to `CCC[C@@]12C=C(C#N)C(=O)C[C@H]1CCc1c(-c3ccccc3F)nc(-c3ccnc(CF)c3)nc12` [T155], for which, in assay [1], the “HRF2 ARE 2×” value is given as 267 nM. The IC50 in assay [2] was 71 nM.

As for `CCC[C@@]12C=C(C#N)C(=O)C[C@H]1CCc1c(-c3ccccc3F)nc(-c3ccnc4ccccc34)nc12` [T156], in assay [1], the “HRF2 ARE 2×” value was 333 nM. For the same molecule, the IC50 in assay [2] stood at 54 nM.

On to `C[C@]1(CC2CC2)C(=O)C(C#N)=C[C@@]2(C)c3nc(-c4ccnc5ccccc45)nc(-c4ccccc4F)c3CC[C@H]12` [T157], for which the “HRF2 ARE 2×” value in assay [1] is recorded as 304 nM. In assay [2], the IC50 is 23 nM.

With `CCC[C@H]1C(=O)C(C#N)=C[C@@]2(C)c3nc(-c4cccc5ncccc45)nc(-c4ccccc4F)c3CC[C@H]12` [T159], the “HRF2 ARE 2×” value in assay [1] is 337 nM. Further, the IC50 in assay [2] worked out at 22 nM.

In the case of `CC(C)c1cccc(-c2nc(-c3ccnc4ccccc34)nc3c2CC[C@@H]2[C@@H](C)C(=O)C(C#N)=C[C@@]32C)c1` [T160], the “HRF2 ARE 2×” value in assay [1] worked out at 418 nM. The IC50 in assay [2] worked out at 22 nM.

Regarding `C[C@H]1C(=O)C(C#N)=C[C@@]2(C)c3nc(-c4ccnc5ccccc45)nc(-c4cccc(-c5ccccc5)c4)c3CC[C@H]12` [T162], in assay [1], the “HRF2 ARE 2×” value is 601 nM. For the same molecule, the IC50 in assay [2] came out at 50 nM.

In the case of `CC(C)CC[C@@]12C=C(C#N)C(=O)C[C@H]1CCc1c(-c3ccccc3F)nc(-c3ccnc4ccccc34)nc12` [T164], the “HRF2 ARE 2×” value in assay [1] is given as 1059 nM. In addition, the IC50 in assay [2] was determined as 352 nM.

Take `CC(C)CC[C@@]12C=C(C#N)C(=O)C[C@H]1CCc1c(-c3ccccc3F)nc(-c3ccnc(CF)c3)nc12` [T165]: the “HRF2 ARE 2×” value in assay [1] was found to be 863 nM. For the same molecule, the IC50 in assay [2] was 65 nM.

In the case of `C=C(C)C[C@@]1(C)C(=O)C(C#N)=C[C@@]2(C)c3nc(-c4ccnc5ccccc45)nc(-c4ccccc4F)c3CC[C@H]12` [T166], the “HRF2 ARE 2×” value in assay [1] is recorded as 878 nM. Also, in assay [2], the IC50 amounted to 31 nM.

For the molecule `CCC[C@@]12C=C(C#N)C(=O)C[C@H]1CCc1c(-c3ccccc3F)nc(-c3ccnc(C4CC4)c3)nc12` [T167], the “HRF2 ARE 2×” value in assay [1] is recorded as 493 nM. In addition, the IC50 in assay [2] worked out at 106 nM.

Regarding `CCC[C@H]1C(=O)C(C#N)=C[C@@]2(CCC)c3nc(-c4ccnc(C5CC5)c4)nc(-c4ccccc4F)c3CC[C@H]12` [T168], the “HRF2 ARE 2×” value in assay [1] came out at 1239 nM. For the same molecule, in assay [2], the IC50 came out at 32 nM.

Consider `C[C@@H]1C(=O)C(C#N)=C[C@@]2(C)c3nc(-c4ccnc5ccccc45)nc(-c4ccccc4F)c3CC[C@@H]12` [T175], for which the “HRF2 ARE 2×” value in assay [1] is more than 2000 nM. Moreover, the IC50 in assay [2] came out at 329 nM.

For `C[C@H]1C(=O)C(C#N)=C[C@@]2(C)c3nc(-c4ccnc5ccccc45)nc(-c4ccccc4F)c3CC[C@@H]12` [T176], in assay [1], the “HRF2 ARE 2×” value is on record as more than 2000 nM. For the same molecule, in assay [2], the IC50 was 455 nM.

As to `CC(=O)NCCc1cc(-c2nc(-c3ccccc3F)c3c(n2)[C@]2(C)C=C(C#N)C(=O)[C@H](C)[C@H]2CC3)ccn1` [T178], in assay [1], the “HRF2 ARE 2×” value turned out to be 444 nM. For the same molecule, the IC50 in assay [2] stood at 130 nM.

With `C[C@H]1C(=O)C(C#N)=C[C@@]2(C)c3nc(-c4ccncc4-c4ccccc4)nc(-c4ccccc4F)c3CC[C@H]12` [T179], the “HRF2 ARE 2×” value in assay [1] is given as 649 nM. Also, the IC50 in assay [2] turned out to be 27 nM.

Regarding `C[C@H]1C(=O)C(C#N)=C[C@@]2(C)c3nc(-c4ccncc4C4CC4)nc(-c4ccccc4F)c3CC[C@H]12` [T180], the “HRF2 ARE 2×” value in assay [1] is on record as 494 nM. Moreover, in assay [2], the IC50 stood at 21 nM.

In the case of `C[C@H]1C(=O)C(C#N)=C[C@@]2(C)c3nc(-c4cccc5ncccc45)nc(-c4ccccc4)c3CCC[C@H]12` [T183], in assay [1], the “HRF2 ARE 2×” value is reported as 1868 nM. Moreover, the IC50 in assay [2] was 70 nM.

As to `C[C@H]1C(=O)C(C#N)C[C@@]2(C)c3nc(-c4ccnc5ccccc45)nc(-c4ccccc4F)c3CC[C@H]12` (stereo partly shown) [T186], the “HRF2 ARE 2×” value in assay [1] is listed as more than 2000 nM. The IC50 in assay [2] came to 195 nM.
